The source of these data is ChEMBL document CHEMBL5465560, “Selectivity Literature for EUbOPEN Chemogenomic Library” (2024).

Experiment [1] concerns the target T1, Serine/threonine-protein kinase 17A (Homo sapiens) (UniProt Q9UEE5).
T1 sequence (whole entry): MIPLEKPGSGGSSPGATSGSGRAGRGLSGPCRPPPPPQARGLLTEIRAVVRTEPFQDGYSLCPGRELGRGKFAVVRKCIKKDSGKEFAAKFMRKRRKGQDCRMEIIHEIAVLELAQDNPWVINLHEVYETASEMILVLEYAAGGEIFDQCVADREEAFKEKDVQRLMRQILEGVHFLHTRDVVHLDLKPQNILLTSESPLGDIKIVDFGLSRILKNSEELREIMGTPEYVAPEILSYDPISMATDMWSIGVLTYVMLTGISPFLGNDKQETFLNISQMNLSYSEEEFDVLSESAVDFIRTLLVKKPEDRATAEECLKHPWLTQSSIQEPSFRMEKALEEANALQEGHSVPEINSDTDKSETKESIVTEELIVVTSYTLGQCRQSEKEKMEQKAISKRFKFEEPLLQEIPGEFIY
Conditions: at 10 µM.

Experiment [2] addresses T2, Myotonin-protein kinase (Homo sapiens) (UniProt Q09013).
T2 sequence (whole entry): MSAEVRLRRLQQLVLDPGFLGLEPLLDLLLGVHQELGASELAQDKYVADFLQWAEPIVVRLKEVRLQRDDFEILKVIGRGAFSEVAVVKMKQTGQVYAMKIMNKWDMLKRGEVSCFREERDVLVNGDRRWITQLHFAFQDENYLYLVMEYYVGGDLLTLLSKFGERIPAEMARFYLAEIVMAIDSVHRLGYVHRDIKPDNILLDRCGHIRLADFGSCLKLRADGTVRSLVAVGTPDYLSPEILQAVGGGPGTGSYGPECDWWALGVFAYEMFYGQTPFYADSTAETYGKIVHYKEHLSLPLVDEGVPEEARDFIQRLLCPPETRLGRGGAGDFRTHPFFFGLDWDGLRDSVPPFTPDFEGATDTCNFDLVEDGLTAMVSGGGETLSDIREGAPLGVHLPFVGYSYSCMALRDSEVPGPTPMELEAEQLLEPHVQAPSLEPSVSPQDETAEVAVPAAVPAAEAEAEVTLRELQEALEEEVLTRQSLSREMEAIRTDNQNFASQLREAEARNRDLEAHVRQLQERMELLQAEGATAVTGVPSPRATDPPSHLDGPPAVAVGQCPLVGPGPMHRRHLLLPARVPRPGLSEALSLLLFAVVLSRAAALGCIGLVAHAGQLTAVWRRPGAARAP
In words: Selectivity interaction (KinomeScan (DiscoverX)) EUB0000655a DMPK. The following applies: at 10 µM.

The target of experiment [3] is Serine/threonine-protein kinase PAK 6 (Homo sapiens) (UniProt Q9NQU5). As to the kind of experiment: Selectivity interaction (KinomeScan (DiscoverX)) EUB0000695a PAK6. Conditions: at 100 nM.
Sequence of Serine/threonine-protein kinase PAK 6 (Homo sapiens) (Q9NQU5 whole entry, looked up): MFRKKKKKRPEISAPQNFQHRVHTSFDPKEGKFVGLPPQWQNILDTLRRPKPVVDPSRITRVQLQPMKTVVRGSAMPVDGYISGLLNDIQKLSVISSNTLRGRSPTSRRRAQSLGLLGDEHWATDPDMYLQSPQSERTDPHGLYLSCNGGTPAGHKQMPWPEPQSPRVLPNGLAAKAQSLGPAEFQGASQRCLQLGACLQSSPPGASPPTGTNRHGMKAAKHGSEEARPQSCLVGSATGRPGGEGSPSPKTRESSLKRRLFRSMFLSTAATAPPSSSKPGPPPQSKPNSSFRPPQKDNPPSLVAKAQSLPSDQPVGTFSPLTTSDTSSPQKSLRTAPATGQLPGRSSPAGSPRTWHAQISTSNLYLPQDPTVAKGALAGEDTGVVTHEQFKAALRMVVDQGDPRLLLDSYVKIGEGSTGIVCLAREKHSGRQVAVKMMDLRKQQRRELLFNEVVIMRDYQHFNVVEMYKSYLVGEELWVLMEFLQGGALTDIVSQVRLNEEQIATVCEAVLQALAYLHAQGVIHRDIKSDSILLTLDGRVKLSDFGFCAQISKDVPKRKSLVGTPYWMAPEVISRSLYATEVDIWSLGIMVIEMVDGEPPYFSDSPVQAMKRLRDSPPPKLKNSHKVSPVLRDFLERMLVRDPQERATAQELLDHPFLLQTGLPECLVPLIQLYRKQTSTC
In experiment [4] the target is T3, Serine/threonine-protein kinase BRSK2 (Homo sapiens) (UniProt Q8IWQ3).
T3 sequence (whole entry): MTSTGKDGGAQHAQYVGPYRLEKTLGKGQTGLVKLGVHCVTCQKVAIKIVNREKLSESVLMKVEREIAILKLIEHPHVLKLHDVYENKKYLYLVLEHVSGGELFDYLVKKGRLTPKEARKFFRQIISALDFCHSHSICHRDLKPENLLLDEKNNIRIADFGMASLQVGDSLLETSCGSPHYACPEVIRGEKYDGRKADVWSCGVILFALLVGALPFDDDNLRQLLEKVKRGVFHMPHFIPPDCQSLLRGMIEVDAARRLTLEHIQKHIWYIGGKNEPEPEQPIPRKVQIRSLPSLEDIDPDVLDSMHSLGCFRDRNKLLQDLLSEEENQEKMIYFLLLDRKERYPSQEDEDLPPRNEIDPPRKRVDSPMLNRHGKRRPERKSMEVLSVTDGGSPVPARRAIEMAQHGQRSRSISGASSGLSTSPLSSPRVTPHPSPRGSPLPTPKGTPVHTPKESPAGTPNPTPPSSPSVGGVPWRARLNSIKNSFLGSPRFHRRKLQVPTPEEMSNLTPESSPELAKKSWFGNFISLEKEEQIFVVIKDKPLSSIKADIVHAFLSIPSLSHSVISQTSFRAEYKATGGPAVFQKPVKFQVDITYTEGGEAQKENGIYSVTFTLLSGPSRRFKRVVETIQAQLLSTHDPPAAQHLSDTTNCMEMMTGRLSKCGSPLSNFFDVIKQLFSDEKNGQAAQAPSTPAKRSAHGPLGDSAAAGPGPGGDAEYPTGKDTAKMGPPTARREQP
Conditions: at 10 µM.

Experiment [5] concerns the target T4, Mitogen-activated protein kinase 15 (Homo sapiens) (UniProt Q8TD08).
T4 sequence (whole entry): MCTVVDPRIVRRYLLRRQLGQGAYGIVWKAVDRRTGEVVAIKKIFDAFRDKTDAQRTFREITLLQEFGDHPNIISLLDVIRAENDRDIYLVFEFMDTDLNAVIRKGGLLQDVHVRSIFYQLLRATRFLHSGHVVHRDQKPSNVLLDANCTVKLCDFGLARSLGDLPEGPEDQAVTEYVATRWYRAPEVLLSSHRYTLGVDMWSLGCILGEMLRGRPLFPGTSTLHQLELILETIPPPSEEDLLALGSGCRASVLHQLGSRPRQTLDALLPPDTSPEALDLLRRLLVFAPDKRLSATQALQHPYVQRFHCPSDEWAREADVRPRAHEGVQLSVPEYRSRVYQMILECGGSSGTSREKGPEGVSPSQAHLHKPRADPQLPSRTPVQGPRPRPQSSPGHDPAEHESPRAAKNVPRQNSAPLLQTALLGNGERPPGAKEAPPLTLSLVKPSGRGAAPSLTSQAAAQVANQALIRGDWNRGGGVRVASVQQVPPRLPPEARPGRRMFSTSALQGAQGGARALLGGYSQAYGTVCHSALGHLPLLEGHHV
As to the kind of experiment: Selectivity interaction (KinomeScan (DiscoverX)) EUB0001619a MAPK15. The following applies: at 1 µM.

`CCN(CC)CCCCNc1ncc2cc(-c3cc(OC)cc(OC)c3)c(NC(=O)NC(C)(C)C)nc2n1`: in experiment [1], the % of control was determined as 100%. Compound `CN(C)CCOc1ccc(-c2nc(-c3ccncc3)c(-c3ccc4c(c3)CC/C4=N\O)[nH]2)cc1` yielded a % of control in experiment [2] of 100%. `Cc1cc(F)c(C(=O)Nc2cccc(-c3nncn3C(C)C)n2)cc1-n1cnc(C2CC2)c1` yielded a % of control in experiment [3] of 97%. `COCC(=O)NC/C=C/c1ccc2ncnc(Nc3ccc(Oc4ccc(C)nc4)c(C)c3)c2c1` [CP-724714]: the % of control in experiment [4] worked out at 100%. Regarding `N#Cc1cccc(-c2c[nH]c3ncnc(N4CCOCC4)c23)c1`, the % of control in experiment [5] came to 56%.
